Columns and labels:
K562 [1] = test: Cellular proliferation, CellTiter-Glo, K562; type: cell-based; conditions: Homo sapiens; K562, 10% FBS, 72 hours
Description: (§1) To evaluate compound effect on cellular proliferation, cells were plated at 1,000 cells/well in 96-well tissue culture plates in a total volume of 90 uL medium supplemented with 10% FBS (Sigma, Saint Louis, Mo.). 24 hours later, 10 uL of compound (in a 2-fold serial dilution) is added to the cells for a top concentration of 50 uM and a final DMSO concentration <1%. After 72 hours, cell number was measured using the CellTiter-Glo Luminescent assay according to manufacturer's recommendations (Promega, Madison, Wis.). A viability assay in reduced serum was also conducted. Cells were plated at 5,000 cells/well in 96-well plates in a total volume of 100 uL medium supplemented with 10% FBS (Sigma, Saint Louis, Mo.). 24 hours later, the medium was replaced with 90 uL medium containing 1% FBS and the assay conducted as described. IC50 values were determined by plotting growth against compound concentration in a 4-parameter logisitic model in XLFit.

NCI-929 [2] = test: Cellular proliferation, CellTiter-Glo, NCI-929; type: cell-based; conditions: Homo sapiens; NCI-929, 10% FBS, 72 hours
Description: as §1

MDA-MB-468 [3] = test: Cellular proliferation, CellTiter-Glo, MDA-MB-468; type: cell-based; conditions: Homo sapiens, MDA-MB-468, 72 h, read-out: IC50 on cellular proliferation, MDA-MB-468
Description: as §1

MDA-MB-231 [4] = test: Cellular proliferation, CellTiter-Glo, MDA-MB-231; type: cell-based; conditions: Homo sapiens; MDA-MB-231, 10% FBS, 72 hours
Description: as §1

K562 [5] = test: Cellular viability in reduced serum, CellTiter-Glo, K562; type: cell-based; conditions: Homo sapiens; K562, reduced serum (1% FBS)
Description: as §1

NCI-929 [6] = test: Cellular viability in reduced serum, CellTiter-Glo, NCI-929; type: cell-based; conditions: Homo sapiens; NCI-929, reduced serum (1% FBS)
Description: as §1

MDA-MB-468 [7] = test: Cellular viability in reduced serum, CellTiter-Glo, MDA-MB-468; type: cell-based; conditions: Homo sapiens, MDA-MB-468, read-out: IC50 on cellular viability, MDA-MB-468
Description: as §1

MDA-MB-231 [8] = test: Cellular viability in reduced serum, CellTiter-Glo, MDA-MB-231; type: cell-based; conditions: Homo sapiens; MDA-MB-231, reduced serum (1% FBS)
Description: as §1

[9] = target: Bcl-2 (residues 1-207 A96T,G110R, Δ35-91, replaced with Bcl-xL35-50) (Homo sapiens, UniProt P10415, A37E/DEL42-87/G36T/INS34DVEEN/P40E/P88T/P90S/P91E/V35R/V89E); test: Bak peptide fluorescence polarization anisotropy competition assay, Bcl-2 selectivity; type: binding; conditions: Table 3; FITC-Bak peptide 10 nM, Bcl-2 40 nM
Chain of Bcl-2 (residues 1-207 A96T,G110R, Δ35-91, replaced with Bcl-xL35-50) (P10415 with tags, fused parts or gaps A37E/DEL42-87/G36T/INS34DVEEN/P40E/P88T/P90S/P91E/V35R/V89E): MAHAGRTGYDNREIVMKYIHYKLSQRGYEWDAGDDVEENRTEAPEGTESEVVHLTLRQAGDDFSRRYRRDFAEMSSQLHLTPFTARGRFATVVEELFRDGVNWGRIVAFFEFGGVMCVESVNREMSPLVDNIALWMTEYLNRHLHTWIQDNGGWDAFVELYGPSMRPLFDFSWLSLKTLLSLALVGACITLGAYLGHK
Description: (§2) Compound affinity was measured using a fluorescence polarization anisotropy competition assay. Anisotropy measurements were carried out in 384-well, black, flat-bottom plates (Greiner Bio-one, Monroe, N.C., USA).
(§3) Compounds are diluted in DMSO in a 10-point, 3-fold serial dilution scheme. 2.5 uL compound is added to 47.5 uL of assay buffer containing FITC-Bak and protein, for a final DMSO concentration of 5% and a top concentration of 20 uM. […] The plate was mixed and incubated for 90 minutes at room temperature.

[10] = target: Bcl-xL (residues 1-209, loop 45-86 deleted) (Homo sapiens (Human), UniProt Q07817, DEL45-86); test: Bak peptide fluorescence polarization anisotropy competition assay, Bcl-xL selectivity; type: binding; conditions: Table 3; FITC-Bak peptide 10 nM, Bcl-xL 4 nM
Chain of Bcl-xL (residues 1-209, loop 45-86 deleted) (Q07817 other isoform, or with tags, fused parts or gaps del 45-86): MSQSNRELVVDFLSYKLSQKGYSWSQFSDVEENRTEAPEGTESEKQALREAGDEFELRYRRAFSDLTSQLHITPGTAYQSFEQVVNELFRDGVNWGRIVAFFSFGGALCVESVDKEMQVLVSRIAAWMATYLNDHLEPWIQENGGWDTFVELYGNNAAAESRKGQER
Description: as §2, §3

[11] = target: recombinant Mcl-1 (residues 172-327) (Homo sapiens (Human), UniProt Q07820); test: Bak peptide fluorescence polarization anisotropy competition assay, Mcl-1; type: binding; conditions: Table 2, Ki range; FITC-Bak peptide 10 nM, Mcl-1 14 nM; read-out: Ki for inhibition of Mcl-1
Chain of recombinant Mcl-1 (residues 172-327) (Q07820 172-327): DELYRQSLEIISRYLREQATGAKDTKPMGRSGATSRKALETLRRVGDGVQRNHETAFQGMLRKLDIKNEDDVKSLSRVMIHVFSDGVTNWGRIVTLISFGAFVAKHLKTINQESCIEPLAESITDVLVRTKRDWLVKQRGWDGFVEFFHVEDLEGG

Row | IC50 (K562 [1]) [µM] | IC50 (MDA-MB-468 [3]) [µM] | IC50 (MDA-MB-231 [4]) [µM] | IC50 (K562 [5]) [µM] | IC50 (MDA-MB-468 [7]) [µM] | IC50 (MDA-MB-231 [8]) [µM] | Ki [11] [µM] | Compound | IC50 (NCI-929 [2]) [µM] | IC50 (NCI-929 [6]) [µM] | Ki [9] [µM] | Ki [10] [µM]
1 | 17.9 | 13.8 | 16.9 | 2.6 | 11.2 | 12.9 |  | Cc1cc(OCCCc2c(C(=O)NS(=O)(=O)c3ccccc3)[nH]c3c(-c4cccnc4C)cccc23)cc(C)c1Cl [Example 97, 3-(3-(4-chloro-3,5-dimethylphenoxy)propyl)-7-(2-methylpyridin-3-yl)-N-(phenylsulfonyl)-1H-indole-2-carboxamide] | 23.3 | 5.1 |  | 
2 |  |  |  |  |  |  |  | Cc1cc(OCCCc2c(C(=O)O)sc3cc(Cl)ccc23)cc(C)c1Cl [Example 6] |  |  | 0.99 | 2.4
3 | > 50 | 50 | > 50 | 10.7 | 26.8 | 18.4 | ≤ 0.1 | Cc1cc(OCCCc2c(C(=O)NS(=O)(=O)CCNC(=O)c3cccn3C)[nH]c3c(-c4c(CO)nn(C)c4C)cccc23)cc(C)c1Cl [Example 206, 3-(3-(4-chloro-3,5-dimethylphenoxy)propyl)-7-(3-(hydroxymethyl)-1,5-dimethyl-1H-1-pyrazol-4-yl)-N-((2-(1-methyl-1H-pyrrole-2-carboxamido)ethyl)sulfonyl)-1H-indole-2-carboxamide] | > 50 | 33.9 |  | 
4 | > 50 | 45.7 | > 50 | 10.1 | 14.8 | 14.2 | ≤ 0.1 | Cc1cc(OCCCc2c(C(=O)NS(=O)(=O)CCNC(=O)c3cccn3Cc3ccccc3)[nH]c3c(-c4c(CO)nn(C)c4C)cccc23)cc(C)c1Cl [Example 207, N-((2-(1-benzyl-1H-pyrrole-2-carboxamido)ethyl)sulfonyl)-3-(3-(4-chloro-3,5-dimethylphenoxy)propyl)-7-(3-(hydroxymethyl)-1,5-dimethyl-1H-pyrazol-4-yl)-1H-indole-2-carboxamide] | 30 | 12 |  | 

From patent US10844032B2, “Substituted benzofuran, benzothiophene and indole Mcl-1 inhibitors” (Vanderbilt University, priority 2012, dated 2020)
